Consider 1 compound from US20150223457A1, “METHOD OF COMBATTING SOYBEAN SUDDEN DEATH SYNDROME USING SUBSTITUTED PYRAZOLAMIDES” (Syngenta Participations AG, priority 2012, published 2015).

SMILES strings stand for the structures.

Assay [1] concerns Fusarium virguliforme. The assay can be described thus: Seed treatment efficacy against soybean sudden death syndrome (inoculated seeds in rolled paper towels). The assay is classed as in vivo. Particulars: fungicide rate 2.5 mg a.i./100 kg seed; soybean cultivar S36-B6, isolate 10-118, hypocotyls and roots, 19 days at 18° C., mean of 3 replications. The method, then:
A study was conducted to determine the efficacy of the compound No. 1.001 against F. virguliforme the causal agent of the sudden death syndrome on soybeans. Soybean seeds of the cultivar S36-B6 were treated with the compound No. […] […] Ten soybean seeds were placed on a paper towel (Scotts paper towels, 25.4 cm×33.02 cm in size) that has been previously moistened with 40 milliliters of water. Seeds were inculated with 100 microliters of a F. virguliforme conidial suspension adjusted to 100,000 conidia per milliliter of water. The isolate with the identification number 10-118 of F. virguliforme was used used in this study since it is sensitive to fludioxonil. Inoculated seeds seeds were then covered with another paper towel. Starting at one end, the paper towels with seeds were rolled loosely in a cylinder-fashion. The rolled paper towels with the inoculated seeds were placed into a zipped plastic bag. Bags were labelled with the fungicide treatment and dated. Bags with seeds were then placed in a growth room at a temperature of 18° C. and 12 h photoperiod for 19 days. The study was conducted using a completely randomized design with 3 replications. Disease severity was conducted on the hypocotyls and roots and measured as percentage.

The test system of assay [2] is Fusarium virguliforme. The experiment in a line: Sensitivity of F. virguliforme isolates: mycelial growth inhibition on amended potato dextrose agar plates. It counts as cell-based. Particulars: for ED50 (effective dose for 50% of the fungal growth inhibition): potato dextrose agar, 20° C., 9 days. As for the experimental part: The sensitivity of 4 F. virguliforme isolates to the compound No. 1.001 was determined by comparing the mycelial growth inhibition of on potato dextrose agar plates amended or not with the compound No. 1.001. The compound No. 1.001 was tested at the following concentrations: 0, 0.001, 0.01, 0.1, 1 and 10 mg.ai./L. The fungicide fludioxonil (commercial formulation Maxim 4 FS) was included in the sensitivity study. The plates were incubated at 20° C. for 9 days. The sensitivity test was set in a completely randomized design with 2 replications for each concentration of fungicide tested. Data obtained for each isolate was transformed using an arcsine transformation. The effective dose for 50% of the fungal growth inhibition (ED50 values) was calculated by regressing the transformed growth inhibition data against the log of the fungicide concentration.

`N#Cc1c[nH]cc1-c1cccc2c1OC(F)(F)O2` [Fludioxonil, fludioxonil]: in the assay on Fusarium virguliforme [1], the “% disease severity” value is on record as 20.9%. Moreover, the “ED50 (effective dose for 50% of the fungal growth inhibition)” value in the assay on Fusarium virguliforme [2] (isolate 10-118) was 0.206 mg ai/L; in the assay on Fusarium virguliforme [2] (isolate 10-119), more than 10 mg ai/L; in the assay with Fusarium virguliforme [2] (isolate 10-120), more than 10 mg ai/L; in the assay with Fusarium virguliforme [2] (isolate 10-230), more than 10 mg ai/L. Also, in the assay on Fusarium virguliforme [2] (one isolate of 4), the “sensitivity of isolate to the fungicide (in words)” value is “sensitive”. Also, in the assay on Fusarium virguliforme [2] (the other 3 isolates of 4), the “dose response of isolates to the fungicide (in words)” value is “not a dose response”.
